Data as given in patent US20080200403A1, “9A-Carbamoyl and Thiocarbamoyl Azalides with Anti-Inflammatory Activity” (GLAXOSMITHKLINE, priority 2005, published 2008).

Test system: granulocytes
Test: Accumulation in granulocytes (LC-MS)
Type: in vitro ADME
Conditions: 180 min
Description: Granulocytes were obtained from heparinized whole blood using density gradient centrifugation. Erythrocytes were sedimented on 3% dextran T-500 (Amersham Pharmacia Biotech AB, Uppsala, Sweden). Leukocytes were centrifuged on Ficoll (Amersham Pharmacia Biotech AB, Uppsala, Sweden) for 35 min at 600 g at 20° C. The pellet of granulocytes was cleared from remaining erythrocytes by a brief hypotonic lysis.
7.5×10^6 granulocytes, isolated as described above, were suspended in 3 mL of RPMI 1640 (Institute of Immunology, Croatia) containing 10 μM of tested macrolide. Samples were incubated at 37° C. for 180 min. Following incubation, the samples were centrifuged through the layer of Poly(dimethylsiloxane-co-diphenylsiloxane), dihydroxy terminated—silicone oil (Aldrich Chemical Company, Milwaukee, USA). The pellet was resuspended in 0.5% Triton X-100 (Sigma, St. Louis, USA) in deionized water (MilliQ, Millipore Corporation, Bedford, USA). The suspension was sonicated, proteins were precipitated with acetonitrile, and the concentration of macrolide in the supernatants was determined by liquid chromatography-mass spectrometry (LC-MS).
Intracellular concentrations of the test compounds were calculated from the mean cell number recovered after centrifuging through silicone oil. According to the literature, about 1 million neutrophils is considered to have a volume of 0.24 μL (Vazifeh et al., Antimicrob Agents Chemo. 1997; 41: 2099-2107). To estimate the extent of macrolide accumulation, the intracellular to extracellular concentration ratio (I/E) was calculated, where E (due to a large volume of incubation medium) was taken as constant (10 μM). Results are expressed relative to azithromycin according to the following equation: % of azithromycin uptake=(I/E of a substance/I/E of azithromycin)×100. I/E values obtained for azithromycin were 164±10.

Row | SMILES | % of azithromycin uptake (granulocytes, 10 μM macrolide, 37° C., (I/E of substance/I/E of azithromycin)×100) | % of azithromycin uptake (10 μM) | intracellular to extracellular concentration ratio (I/E) (10 μM)
1 | CCC1OC(=O)C(C)C(OC2CC(C)(OC)C(O)C(C)O2)C(C)C(OC2OC(C)CC(N(C)C)C2O)C(C)(O)CC(C)CN(C(=S)Nc2cccc(F)c2)C(C)C(O)C1(C)O (stereo not drawn) [Compound 3] | 93% | – | –
2 | CC[C@H]1OC(=O)[C@H](C)[C@@H](O[C@H]2C[C@@](C)(OC)[C@@H](O)[C@H](C)O2)[C@H](C)[C@@H](O[C@@H]2O[C@H](C)C[C@H](N(C)C)[C@H]2O)[C@](C)(O)C[C@@H](C)CN(C)[C@H](C)[C@@H](O)[C@]1(C)O [Azithromycin, azithromycin, reference compound] | – | 100% | 164±10
